These results are taken from PMC11870023, “A facile assay for zDHHC palmitoyl transferase activation elucidates effects of mutation and modification” (Journal of Lipid Research, 2025).

Holding throughout (assay): auto-S-palmitoylation of HEK293 membranes, SDS-PAGE fluorescence normalised to tag Western blot
In general terms: In western blotting, separated proteins are transferred to a membrane and probed.

For assay [1], the target named is T1, human zDHHC7 (Homo sapiens, UniProt Q9NXF8).
T1 construct: full length, His6-Myc tag kept (pCEpuro-His6-Myc-1), HEK293 membrane fraction
T1 sequence (Q9NXF8 1-308): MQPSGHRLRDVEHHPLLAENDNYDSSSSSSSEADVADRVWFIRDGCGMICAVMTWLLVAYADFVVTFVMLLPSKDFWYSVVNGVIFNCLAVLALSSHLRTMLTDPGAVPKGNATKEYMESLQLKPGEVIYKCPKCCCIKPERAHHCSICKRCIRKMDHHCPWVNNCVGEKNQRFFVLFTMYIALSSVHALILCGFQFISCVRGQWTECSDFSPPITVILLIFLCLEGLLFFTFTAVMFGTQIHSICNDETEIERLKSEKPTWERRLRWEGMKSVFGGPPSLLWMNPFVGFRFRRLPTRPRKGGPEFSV
In kind it is cell-based. To be noted: pH 7.4, 37 °C, 2 min; labelled compound; covalent thioester at active-site Cys. The text has this:
auto-S-palmitoylation of HEK293 membranes, SDS-PAGE fluorescence normalised to tag Western blot on human zDHHC7 | N44D mutation within the N-terminal cytoplasmic tail of zDHHC7 (Fig. 4A) had no effect

For assay [2], the target named is T1, human zDHHC7. The format is cell-based. The settings on record: pH 7.4, 37 °C, 2 min; labelled compound; covalent thioester at active-site Cys. This is another data set of the same source.
Another assay addresses T2, human zDHHC14 (Homo sapiens, UniProt Q8IZN3, C181Y).
T2 construct: full length, His6-Myc tag kept (pCEpuro-His6-Myc-1), HEK293 membrane fraction
T2 sequence (Q8IZN3 1-488 C181Y): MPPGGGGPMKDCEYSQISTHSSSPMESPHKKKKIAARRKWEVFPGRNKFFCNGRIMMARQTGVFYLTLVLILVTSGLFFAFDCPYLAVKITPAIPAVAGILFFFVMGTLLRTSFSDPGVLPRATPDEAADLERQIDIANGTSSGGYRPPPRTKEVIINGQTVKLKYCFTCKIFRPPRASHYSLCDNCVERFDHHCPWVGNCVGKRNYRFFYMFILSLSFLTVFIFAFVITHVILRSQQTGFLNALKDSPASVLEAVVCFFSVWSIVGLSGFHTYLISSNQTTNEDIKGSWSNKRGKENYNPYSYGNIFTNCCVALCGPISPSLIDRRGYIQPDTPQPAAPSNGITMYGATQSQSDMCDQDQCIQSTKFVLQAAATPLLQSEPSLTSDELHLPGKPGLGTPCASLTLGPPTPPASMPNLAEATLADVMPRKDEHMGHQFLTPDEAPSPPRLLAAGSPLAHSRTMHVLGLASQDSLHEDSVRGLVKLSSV
In kind it is biochemical. The settings on record: pH 7.4, 37 °C, 2 min; labelled compound; covalent thioester at active-site Cys.

A further assay deals with T3, mouse zDHHC11.
T3 construct: full length, HA tag kept (pEF-Bos-HA), HEK293 membrane fraction; the source plasmid set's older numbering used DHHC-11 for Zdhhc23, so the gene is not certain
The format is cell-based. To be noted: pH 7.4, 37 °C; labelled compound; covalent thioester at active-site Cys.

Usually Km stands for the substrate concentration at which the rate is half of its maximum.

Regarding `CC(C)(COP(=O)(O)OP(=O)(O)OC[C@H]1O[C@@H](n2cnc3c(N)ncnc32)[C@H](O)[C@@H]1OP(=O)(O)O)[C@@H](O)C(=O)NCCC(=O)NCCSC(=O)CCCCCCCCCCCCCCCNc1ccc([N+](=O)[O-])c2nonc12` [NBD-palmitoyl-CoA, N-[(7-nitro-2-1,3-benzoxadiazol-4-yl)-methyl]amino palmitoyl], the Km was 2.85 ± 0.72 µM on human zDHHC7 [1], 3.4 ± 0.57 µM at human zDHHC7 [2] and 0.89 ± 0.23 µM with mouse zDHHC11. Moreover, the “auto-S-palmitoylation of HEK293 membranes, SDS-PAGE fluorescence normalised to t” value on human zDHHC14 is “C→Y mutation of Cys181 within the second zinc finger domain (Fig. 4A) eliminated auto-S-palmitoylation”.
